Results: ChEMBL document CHEMBL1153480, “Study on the potential anti-cancer activity of phosphonium and ammonium-based ionic liquids” (2009)

Legend:
Format in all cases: functional
TK-10 = assay: cells; conditions: Homo sapiens
Description: Growth inhibition of human TK10 cells assessed as drug level required for 50% reduction in net protein increase by SRB assay relative to control

DU-145 = assay: Cytotoxicity against human DU145 cells by SRB assay; conditions: read-out: LC50 (the source's name)
RPMI-8226 [1] = assay: cells; conditions: Homo sapiens
Description: Growth inhibition of human RPMI8226 cells assessed as drug level required for 50% reduction in net protein increase by SRB assay relative to control

RXF 393 [2] = assay: cells; conditions: Homo sapiens
Description: Growth inhibition of human RFX393 cells assessed as cell growth at 10 uM by SRB assay

BT-549 = assay: cells; conditions: Homo sapiens
Description: Growth inhibition of human BT549 cells assessed as drug level required for 50% reduction in net protein increase by SRB assay relative to control

SK-OV-3 [3] = assay: cells; conditions: Homo sapiens
Description: Growth inhibition of human SKOV3 cells assessed as drug level required for 50% reduction in net protein increase by SRB assay relative to control

SNB-75 [4] = assay: cells; conditions: Homo sapiens
Description: Growth inhibition of human SNB75 cells assessed as cell growth at 10 uM by SRB assay

SK-MEL-2 = assay: cells; conditions: Homo sapiens
Description: Growth inhibition of human SK-MEL-2 cells assessed as cell growth at 10 uM by SRB assay

SF-268 [5] = assay: cells; conditions: Homo sapiens
Description: Growth inhibition of human SF268 cells assessed as drug level required for 50% reduction in net protein increase by SRB assay relative to control

cells [6] = conditions: Homo sapiens, Hs-578T
Description: Growth inhibition of human Hs 578T cells assessed as cell growth at 10 uM by SRB assay

MDA-MB-435 = assay: cells; conditions: Homo sapiens
Description: Growth inhibition of human MDA-MB-435 cells assessed as drug level required for 50% reduction in net protein increase by SRB assay relative to control

K562 = assay: cells; conditions: Homo sapiens
Description: Growth inhibition of human K562 cells assessed as drug level required for 50% reduction in net protein increase by SRB assay relative to control

SR [7] = assay: Cytotoxicity against human SR cells by SRB assay; conditions: read-out: LC50 (the source's name)
cells [8] = conditions: Homo sapiens, Hs-578T; read-out: LC50 (the source's name)
Description: Cytotoxicity against human Hs 578T cells by SRB assay

UACC-62 = assay: cells; conditions: Homo sapiens
Description: Growth inhibition of human UACC62 cells assessed as drug level required for 50% reduction in net protein increase by SRB assay relative to control

SNB-75 [9] = assay: cells; conditions: Homo sapiens; remark: listed apart in the source
Description: Growth inhibition of human SNB75 cells assessed as drug level required for 50% reduction in net protein increase by SRB assay relative to control

RXF 393 [10] = assay: Cytotoxicity against human RFX393 cells by SRB assay; conditions: read-out: LC50 (the source's name)
HT-29 = assay: cells; conditions: Homo sapiens
Description: Growth inhibition of human HT-29 cells assessed as cell growth at 10 uM by SRB assay

OVCAR-8 [11] = assay: Cytotoxicity against human OVCAR8 cells by SRB assay; conditions: read-out: LC50 (the source's name)
U-251 = assay: cells; conditions: Homo sapiens
Description: Growth inhibition of human U251 cells assessed as drug level required for 50% reduction in net protein increase by SRB assay relative to control

HCT-116 [12] = assay: cells; conditions: Homo sapiens
Description: Growth inhibition of human HCT116 cells assessed as drug level required for 50% reduction in net protein increase by SRB assay relative to control

NCI-H522 [13] = assay: cells; conditions: Homo sapiens
Description: Growth inhibition of human NCI-H522 cells assessed as drug level required for 50% reduction in net protein increase by SRB assay relative to control

NCI-H226 [14] = assay: cells; conditions: Homo sapiens
Description: Growth inhibition of human NCI-H226 cells assessed as cell growth at 10 uM by SRB assay

MOLT-4 = assay: cells; conditions: Homo sapiens
Description: Growth inhibition of human MOLT4 cells assessed as drug level required for 50% reduction in net protein increase by SRB assay relative to control

Malme-3M = assay: cells; conditions: Homo sapiens
Description: Growth inhibition of human MALME-3M cells assessed as drug level required for 50% reduction in net protein increase by SRB assay relative to control

OVCAR-4 [15] = assay: Cytotoxicity against human OVCAR4 cells by SRB assay; conditions: read-out: LC50 (the source's name)
OVCAR-4 [16] = assay: cells; conditions: Homo sapiens
Description: Growth inhibition of human OVCAR4 cells assessed as cell growth at 10 uM by SRB assay

ACHN = assay: cells; conditions: Homo sapiens
Description: Growth inhibition of human ACHN cells assessed as drug level required for 50% reduction in net protein increase by SRB assay relative to control

cells [17] = conditions: Homo sapiens, CAKI
Description: Growth inhibition of human CAKI cells assessed as drug level required for 50% reduction in net protein increase by SRB assay relative to control

786-0 [18] = assay: cells; conditions: Homo sapiens
Description: Growth inhibition of human 786-0 cells assessed as drug level required for 50% reduction in net protein increase by SRB assay relative to control

HOP-62 [19] = assay: cells; conditions: Homo sapiens
Description: Growth inhibition of human HOP62 cells assessed as cell growth at 10 uM by SRB assay

SF-268 [20] = assay: cells; conditions: Homo sapiens; remark: listed apart in the source
Description: Growth inhibition of human SF268 cells assessed as cell growth at 10 uM by SRB assay

IGROV-1 = assay: cells; conditions: Homo sapiens
Description: Growth inhibition of human IGROV1 cells assessed as drug level required for 50% reduction in net protein increase by SRB assay relative to control

OVCAR-8 [21] = assay: cells; conditions: Homo sapiens
Description: Growth inhibition of human OVCAR8 cells assessed as cell growth at 10 uM by SRB assay

SN12C [22] = assay: cells; conditions: Homo sapiens
Description: Growth inhibition of human SN12C cells assessed as drug level required for 50% reduction in net protein increase by SRB assay relative to control

NCI-H522 [23] = assay: cells; conditions: Homo sapiens; remark: listed apart in the source
Description: Growth inhibition of human NCI-H522 cells assessed as cell growth at 10 uM by SRB assay

SF-295 = assay: Cytotoxicity against human SF295 cells by SRB assay; conditions: read-out: LC50 (the source's name)
SR [24] = assay: cells; conditions: Homo sapiens
Description: Growth inhibition of human SR cells assessed as drug level required for 50% reduction in net protein increase by SRB assay relative to control

CCRF-CEM [25] = assay: cells; conditions: Homo sapiens
Description: Growth inhibition of human CCRF-CEM cells assessed as cell growth at 10 uM by SRB assay

cells [26] = conditions: Homo sapiens, Hs-578T; remark: listed apart in the source
Description: Growth inhibition of human Hs 578T cells assessed as drug level required for 50% reduction in net protein increase by SRB assay relative to control

HOP-62 [27] = assay: cells; conditions: Homo sapiens; remark: listed apart in the source
Description: Growth inhibition of human HOP62 cells assessed as drug level required for 50% reduction in net protein increase by SRB assay relative to control

SK-OV-3 [28] = assay: Cytotoxicity against human SKOV3 cells by SRB assay; conditions: read-out: LC50 (the source's name)
786-0 [29] = assay: cells; conditions: Homo sapiens, read-out: LC50 (the source's name)
Description: Cytotoxicity against human 786-0 cells by SRB assay

NCI-H460 = assay: cells; conditions: Homo sapiens
Description: Growth inhibition of human NCI-H460 cells assessed as cell growth at 10 uM by SRB assay

KM12 = assay: cells; conditions: Homo sapiens
Description: Growth inhibition of human KM12 cells assessed as drug level required for 50% reduction in net protein increase by SRB assay relative to control

NCI-H226 [30] = assay: cells; conditions: Homo sapiens; remark: listed apart in the source
Description: Growth inhibition of human NCI-H226 cells assessed as drug level required for 50% reduction in net protein increase by SRB assay relative to control

A549 [31] = assay: cells; conditions: Homo sapiens
Description: Growth inhibition of human A549 cells assessed as cell growth at 10 uM by SRB assay

HCT-116 [32] = assay: cells; conditions: Homo sapiens; remark: listed apart in the source
Description: Growth inhibition of human HCT116 cells assessed as cell growth at 10 uM by SRB assay

NCI-H322M = assay: cells; conditions: Homo sapiens
Description: Growth inhibition of human NCI-H322M cells assessed as drug level required for 50% reduction in net protein increase by SRB assay relative to control

OVCAR-3 = assay: cells; conditions: Homo sapiens
Description: Growth inhibition of human OVCAR-3 cells assessed as drug level required for 50% reduction in net protein increase by SRB assay relative to control

COLO 205 [33] = assay: cells; conditions: Homo sapiens
Description: Growth inhibition of human COLO205 cells assessed as drug level required for 50% reduction in net protein increase by SRB assay relative to control

A549 [34] = assay: cells; conditions: Homo sapiens; remark: listed apart in the source
Description: Growth inhibition of human A549 cells assessed as drug level required for 50% reduction in net protein increase by SRB assay relative to control

A498 = assay: cells; conditions: Homo sapiens
Description: Growth inhibition of human A498 cells assessed as drug level required for 50% reduction in net protein increase by SRB assay relative to control

RXF 393 [35] = assay: cells; conditions: Homo sapiens; remark: listed apart in the source
Description: Growth inhibition of human RFX393 cells assessed as drug level required for 50% reduction in net protein increase by SRB assay relative to control

[36] = Cytotoxicity against human CAKI cells by SRB assay; conditions: read-out: LC50 (the source's name)
RPMI-8226 [37] = assay: cells; conditions: Homo sapiens; remark: listed apart in the source
Description: Growth inhibition of human RPMI8226 cells assessed as cell growth at 10 uM by SRB assay

SW-620 [38] = assay: Cytotoxicity against human SW620 cells by SRB assay; conditions: read-out: LC50 (the source's name)
CCRF-CEM [39] = assay: cells; conditions: Homo sapiens; remark: listed apart in the source
Description: Growth inhibition of human CCRF-CEM cells assessed as drug level required for 50% reduction in net protein increase by SRB assay relative to control

COLO 205 [40] = assay: cells; conditions: Homo sapiens; remark: listed apart in the source
Description: Growth inhibition of human COLO205 cells assessed as cell growth at 10 uM by SRB assay

SN12C [41] = assay: cells; conditions: Homo sapiens; remark: listed apart in the source
Description: Growth inhibition of human SN12C cells assessed as cell growth at 10 uM by SRB assay

SW-620 [42] = assay: cells; conditions: Homo sapiens
Description: Growth inhibition of human SW620 cells assessed as drug level required for 50% reduction in net protein increase by SRB assay relative to control

MCF7 = assay: cells; conditions: Homo sapiens
Description: Growth inhibition of human MCF7 cells assessed as drug level required for 50% reduction in net protein increase by SRB assay relative to control

T47D = assay: cells; conditions: Homo sapiens
Description: Growth inhibition of human T47D cells assessed as cell growth at 10 uM by SRB assay

LOX IMVI = assay: cells; conditions: Homo sapiens
Description: Growth inhibition of human LOXIMVI cells assessed as drug level required for 50% reduction in net protein increase by SRB assay relative to control

COLO 205 [43] = assay: Cytotoxicity against human COLO205 cells by SRB assay; conditions: read-out: LC50 (the source's name)
HCC 2998 = assay: Cytotoxicity against human HCC2998 cells by SRB assay; conditions: read-out: LC50 (the source's name)
HL-60(TB) = assay: cells; conditions: Homo sapiens
Description: Growth inhibition of human HL-60(TB) cells assessed as cell growth at 10 uM by SRB assay

MDA-MB-468 = assay: Cytotoxicity against human MDA-MB-468 cells by SRB assay; conditions: read-out: LC50 (the source's name)
HOP-62 [44] = assay: Cytotoxicity against human HOP62 cells by SRB assay; conditions: read-out: LC50 (the source's name)
SF-268 [45] = assay: Cytotoxicity against human SF268 cells by SRB assay; conditions: read-out: LC50 (the source's name)
OVCAR-4 [46] = assay: cells; conditions: Homo sapiens; remark: listed apart in the source
Description: Growth inhibition of human OVCAR4 cells assessed as drug level required for 50% reduction in net protein increase by SRB assay relative to control

Compound: CCCCCCCC[N+](C)(CCCCCCCC)CCCCCCCC.O=S(=O)([N-]S(=O)(=O)C(F)(F)F)C(F)(F)F
- GI50 (TK-10): 503 nM
- CC50 (DU-145): 4440 nM
- GI50 (RPMI-8226 [1]): 46 nM
- growth at 10 µM (RXF 393 [2]): -100%
- GI50 (BT-549): 421 nM
- GI50 (SK-OV-3 [3]): 565 nM
- growth at 10 µM (SNB-75 [4]): -100%
- growth at 10 µM (SK-MEL-2): -94.1%
- GI50 (SF-268 [5]): 493 nM
- growth at 10 µM (cells [6]): -66.7%
- GI50 (MDA-MB-435): 335 nM
- GI50 (K562): 186 nM
- CC50 (SR [7]): 5130 nM
- CC50 (cells [8]): > 100000 nM
- GI50 (UACC-62): 335 nM
- GI50 (SNB-75 [9]): 336 nM
- CC50 (RXF 393 [10]): 5750 nM
- growth at 10 µM (HT-29): -100%
- CC50 (OVCAR-8 [11]): 5880 nM
- GI50 (U-251): 334 nM
- GI50 (HCT-116 [12]): 319 nM
- GI50 (NCI-H522 [13]): 287 nM
- growth at 10 µM (NCI-H226 [14]): -86.2%
- GI50 (MOLT-4): 324 nM
- GI50 (Malme-3M): 290 nM
- CC50 (OVCAR-4 [15]): 5800 nM
- growth at 10 µM (OVCAR-4 [16]): -94.1%
- GI50 (ACHN): 630 nM
- GI50 (cells [17]): 84 nM
- GI50 (786-0 [18]): 415 nM
- growth at 10 µM (HOP-62 [19]): -92.2%
- growth at 10 µM (SF-268 [20]): -100%
- GI50 (IGROV-1): 388 nM
- growth at 10 µM (OVCAR-8 [21]): -100%
- GI50 (SN12C [22]): 367 nM
- growth at 10 µM (NCI-H522 [23]): -99.9%
- CC50 (SF-295): 4570 nM
- GI50 (SR [24]): 162 nM
- growth at 10 µM (CCRF-CEM [25]): 85.7%
- GI50 (cells [26]): 417 nM
- GI50 (HOP-62 [27]): 787 nM
- CC50 (SK-OV-3 [28]): 5120 nM
- CC50 (786-0 [29]): 5020 nM
- growth at 10 µM (NCI-H460): -100%
- GI50 (KM12): 310 nM
- GI50 (NCI-H226 [30]): 478 nM
- growth at 10 µM (A549 [31]): -100%
- growth at 10 µM (HCT-116 [32]): -100%
- GI50 (NCI-H322M): 1810 nM
- GI50 (OVCAR-3): 315 nM
- GI50 (COLO 205 [33]): 292 nM
- GI50 (A549 [34]): 1900 nM
- GI50 (A498): 1820 nM
- GI50 (RXF 393 [35]): 464 nM
- CC50 [36]: 3280 nM
- growth at 10 µM (RPMI-8226 [37]): 44.2%
- CC50 (SW-620 [38]): 10000 nM
- GI50 (CCRF-CEM [39]): 190 nM
- growth at 10 µM (COLO 205 [40]): -60.6%
- growth at 10 µM (SN12C [41]): -86.5%
- GI50 (SW-620 [42]): 378 nM
- GI50 (MCF7): 317 nM
- growth at 10 µM (T47D): -73.3%
- GI50 (LOX IMVI): 192 nM
- CC50 (COLO 205 [43]): > 100000 nM
- CC50 (HCC 2998): 6960 nM
- growth at 10 µM (HL-60(TB)): 32%
- CC50 (MDA-MB-468): 2110 nM
- CC50 (HOP-62 [44]): 7770 nM
- CC50 (SF-268 [45]): 5500 nM
- GI50 (OVCAR-4 [46]): 309 nM

Compound: CCCCCCCCCCCCCCCCCCPCCCCCCCCCCCCCC (configuration not stated) [MONO(OCTADECYL(TETRADECYL)PHOSPHONIUM) MONO(HEXAFLUOROPHOSPHATE(V)) MONO(TETRAFLUOROBORATE)]
- GI50 (TK-10): 234 nM
- CC50 (DU-145): > 100000 nM
- GI50 (RPMI-8226 [1]): 16 nM
- growth at 10 µM (RXF 393 [2]): -16.9%
- GI50 (BT-549): 94 nM
- GI50 (SK-OV-3 [3]): 331 nM
- growth at 10 µM (SNB-75 [4]): -85.2%
- growth at 10 µM (SK-MEL-2): -64.7%
- GI50 (SF-268 [5]): 88 nM
- growth at 10 µM (cells [6]): -44.2%
- GI50 (MDA-MB-435): 50 nM
- GI50 (K562): 38 nM
- CC50 (SR [7]): > 100000 nM
- CC50 (cells [8]): > 100000 nM
- GI50 (UACC-62): 61 nM
- GI50 (SNB-75 [9]): 223 nM
- CC50 (RXF 393 [10]): > 100000 nM
- growth at 10 µM (HT-29): -45%
- CC50 (OVCAR-8 [11]): > 100000 nM
- GI50 (U-251): 37 nM
- GI50 (HCT-116 [12]): 84 nM
- GI50 (NCI-H522 [13]): 158 nM
- growth at 10 µM (NCI-H226 [14]): -68.1%
- GI50 (MOLT-4): 90 nM
- GI50 (Malme-3M): 34 nM
- CC50 (OVCAR-4 [15]): > 100000 nM
- growth at 10 µM (OVCAR-4 [16]): -71.3%
- GI50 (ACHN): 244 nM
- GI50 (cells [17]): 350 nM
- GI50 (786-0 [18]): 211 nM
- growth at 10 µM (HOP-62 [19]): -65.6%
- growth at 10 µM (SF-268 [20]): -49%
- GI50 (IGROV-1): 316 nM
- growth at 10 µM (OVCAR-8 [21]): -18.1%
- GI50 (SN12C [22]): 62 nM
- growth at 10 µM (NCI-H522 [23]): -50.9%
- CC50 (SF-295): > 100000 nM
- GI50 (SR [24]): 107 nM
- growth at 10 µM (CCRF-CEM [25]): 23.3%
- GI50 (cells [26]): 84 nM
- GI50 (HOP-62 [27]): 399 nM
- CC50 (SK-OV-3 [28]): > 100000 nM
- CC50 (786-0 [29]): > 100000 nM
- growth at 10 µM (NCI-H460): -41.9%
- GI50 (KM12): 59 nM
- GI50 (NCI-H226 [30]): 189 nM
- growth at 10 µM (A549 [31]): 2.21%
- growth at 10 µM (HCT-116 [32]): -13.1%
- GI50 (NCI-H322M): 401 nM
- GI50 (OVCAR-3): 118 nM
- GI50 (COLO 205 [33]): 243 nM
- GI50 (A549 [34]): 391 nM
- GI50 (A498): 472 nM
- GI50 (RXF 393 [35]): 352 nM
- CC50 [36]: > 100000 nM
- growth at 10 µM (RPMI-8226 [37]): 27.2%
- CC50 (SW-620 [38]): > 100000 nM
- GI50 (CCRF-CEM [39]): 34 nM
- growth at 10 µM (COLO 205 [40]): -6.75%
- growth at 10 µM (SN12C [41]): -70.6%
- GI50 (SW-620 [42]): 72 nM
- GI50 (MCF7): 253 nM
- growth at 10 µM (T47D): -38.5%
- GI50 (LOX IMVI): 50 nM
- CC50 (COLO 205 [43]): > 100000 nM
- CC50 (HCC 2998): > 100000 nM
- growth at 10 µM (HL-60(TB)): 24.9%
- CC50 (MDA-MB-468): > 100000 nM
- CC50 (HOP-62 [44]): > 100000 nM
- CC50 (SF-268 [45]): > 100000 nM
- GI50 (OVCAR-4 [46]): 125 nM
